Experiments:
SW-620 = test: Induction of apoptosis in TRAIL-resistant human SW620 cells assessed as pro-apoptotic cells at 50 uM after 24 hrs by annexin-V staining; type: functional
THP-1 [1] = test: Induction of apoptosis in TRAIL-resistant human THP1 cells assessed as pro-apoptotic cells at 50 uM after 24 hrs by annexin-V staining; type: functional
THP-1 [2] = test: Induction of apoptosis in TRAIL-resistant human THP1 cells assessed as inhibition of caspase-8 activity; type: functional
THP-1 [3] = test: Induction of apoptosis in TRAIL-resistant human THP1 cells after 24 hrs by annexin-V staining; type: functional, cell-based; settings: THP-1, 24 h

Row | EC50 (THP-1 [3]) | Structure (SMILES) | Activity (SW-620) | Activity (THP-1 [1]) | inhibition (INH) (THP-1 [2])
1 | – | CCCCC1(CCCC)O[C@H]2C=C(CO)[C@]3(O)[C@@H]4OC(C)(C)O[C@@]45CCC[C@@H]4[C@@H]1[C@@H]2[C@@]453 | 5% | 15% | –
2 | – | CCCCCC1(CCCCC)O[C@H]2C=C(CO)[C@]3(O)[C@@H]4OC(C)(C)O[C@@]45CCC[C@@H]4[C@@H]1[C@@H]2[C@@]453 | 5% | 5% | –
3 | – | CC(C)CC1(CC(C)C)O[C@H]2C=C(CO)[C@]3(O)[C@@H]4OC(C)(C)O[C@@]45CCC[C@@H]4[C@@H]1[C@@H]2[C@@]453 | 13% | 83% | –
4 | – | CC1(C)O[C@@H]2[C@]3(CCC[C@@H]4[C@H]5CO[C@H]6C=C(CO)[C@@]2(O)[C@]43[C@@H]56)O1 | 4% | 94% | –
5 | – | CC1(C)O[C@H]2C3=C4[C@@H](CCCC[C@@]42O1)[C@H](C(C)(C)O)/C=C\C=C/3CO | 16% | 2% | –
6 | – | CC1(C)O[C@H]2C3=C4[C@@H](CCCC[C@@]42O1)[C@H](C1(O)CCCC1)/C=C\C=C/3CO | 22% | 2% | –
7 | – | CC1(C)O[C@H]2C3=C4[C@@H](CCCC[C@@]42O1)[C@H](C1(O)CCCCC1)/C=C\C=C/3CO | 17% | 2% | –
8 | – | CC(C)CC(O)(CC(C)C)[C@@H]1/C=C\C=C(\CO)C2=C3[C@H]1CCCC[C@@]31OC(C)(C)O[C@@H]21 | 68% | 36% | 90%
9 | – | CCCCCC[C@@H]1/C=C\C=C(\CO)C2=C3[C@H]1CCCC[C@@]31OC(C)(C)O[C@@H]21 | 70% | 20% | 90%
10 | – | CC1(C)O[C@H]2C3=C4[C@@H](CCCC[C@@]42O1)[C@H](CCc1ccccc1)/C=C\C=C/3CO | 23% | 10% | –
11 | – | CC1(C)O[C@H]2C3=C4[C@@H](CCC[C@@]42O1)[C@H](C(C)(C)O)/C=C\C=C/3CO | 12% | 2% | –
12 | – | CC1(C)O[C@@H]2C3=C(/C(CO)=C\C=C/[C@@H](C4(O)CCCC4)[C@@H]3c3ccccc3)[C@@H]2O1 | 12% | 3% | –
13 | – | CC1(C)O[C@@H]2C3=C(/C(CO)=C\C=C/[C@@H](C4(O)CCCCC4)[C@@H]3c3ccccc3)[C@@H]2O1 | 10% | 3% | –
14 | 52.9 µM | CCCCCC[C@@H]1/C=C\C=C(\CO)C2=C([C@H]3OC(C)(C)O[C@@H]23)[C@H]1c1ccccc1 | 70% | 97% | –
15 | – | CC1(C)O[C@@H]2[C@]3(CCC[C@@H]4[C@@H]5[C@H]6[C@H](C=C(CO)[C@@]2(O)[C@]643)OC5(C)C)O1 | 4% | 29% | –
16 | – | CC1(C)O[C@@H]2C3=C(/C(CO)=C\C=C/[C@@H](C(C)(C)O)[C@@H]3c3ccccc3)[C@@H]2O1 (relative stereo) | 15% | 2% | –
17 | 32.4 µM | CC(C)CC(O)(CC(C)C)[C@@H]1/C=C\C=C(\CO)C2=C([C@H]3OC(C)(C)O[C@@H]23)[C@H]1c1ccccc1 (relative stereo) | 66% | 97% | –
18 | 49.3 µM | CC1(C)O[C@@H]2C3=C(/C(CO)=C\C=C/[C@@H](CCc4ccccc4)[C@@H]3c3ccccc3)[C@@H]2O1 (relative stereo) | 58% | 98% | –

Row | Structure (SMILES) | EC50 (THP-1 [3]) | Activity (SW-620) | Activity (THP-1 [1]) | inhibition (INH) (THP-1 [2])
19 | CC1=C(O)C(=O)C=C2C1=CC=C1[C@@]2(C)CC[C@@]2(C)[C@@H]3C[C@](C)(C(=O)O)CC[C@]3(C)CC[C@]12C [CELASTROL] | 15 µM | 99% | 99% | 90%

Reference: ChEMBL document CHEMBL1268895, “Synthesis of exotic polycycles such as cyclooctatrienes and fenestrenes with differential pro-apoptotic activities on human TRAIL-resistant metastatic cell lines” (Bioorg Med Chem Lett, 2010)
